{"source": "ChEMBL document CHEMBL4340530", "about": "“Peptide-based covalent inhibitors of MALT1 paracaspase” (Bioorg Med Chem Lett, 2019)", "key": {"[1]": {"target": "Kallikrein-1 (Homo sapiens) (UniProt P06870)", "sequence (P06870 25-262 limits assumed)": "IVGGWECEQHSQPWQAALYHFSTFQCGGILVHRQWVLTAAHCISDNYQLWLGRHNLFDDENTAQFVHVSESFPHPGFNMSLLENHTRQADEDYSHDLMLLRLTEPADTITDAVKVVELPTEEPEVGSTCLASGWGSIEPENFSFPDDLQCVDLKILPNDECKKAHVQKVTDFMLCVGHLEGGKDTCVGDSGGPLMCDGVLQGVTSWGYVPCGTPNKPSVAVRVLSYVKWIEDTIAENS", "test": "Inhibition of KLK1 (unknown origin) at 10 uM"}, "[2]": {"target": "Cathepsin S (Homo sapiens) (UniProt P25774)", "sequence (P25774 115-331 limits assumed)": "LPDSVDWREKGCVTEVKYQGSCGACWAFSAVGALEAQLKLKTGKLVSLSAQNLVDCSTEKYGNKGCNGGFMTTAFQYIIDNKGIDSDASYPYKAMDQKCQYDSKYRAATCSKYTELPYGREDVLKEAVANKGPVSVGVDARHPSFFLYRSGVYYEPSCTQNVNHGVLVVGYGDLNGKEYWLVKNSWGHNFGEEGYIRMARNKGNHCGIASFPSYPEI", "test": "Inhibition of cathepsin S (unknown origin) at 10 uM relative to control"}, "[3]": {"test": "Half life in mouse plasma", "assay_type": "ADME, cell-free"}, "[4]": {"target": "T1, Cathepsin K (Homo sapiens) (UniProt P43235)", "T1 sequence (whole entry)": "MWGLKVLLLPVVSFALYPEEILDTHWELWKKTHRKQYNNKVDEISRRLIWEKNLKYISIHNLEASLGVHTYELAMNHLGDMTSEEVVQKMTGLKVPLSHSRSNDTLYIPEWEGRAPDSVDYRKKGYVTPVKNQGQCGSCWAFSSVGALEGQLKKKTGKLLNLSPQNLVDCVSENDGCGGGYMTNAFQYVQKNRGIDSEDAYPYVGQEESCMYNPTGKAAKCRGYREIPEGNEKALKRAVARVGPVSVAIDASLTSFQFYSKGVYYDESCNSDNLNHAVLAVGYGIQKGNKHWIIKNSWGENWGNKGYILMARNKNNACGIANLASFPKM", "test": "Inhibition of cathepsin K (unknown origin) at 1 uM relative to control"}, "OCI-Ly3": {"test_system": "OCI-Ly3", "test": "Antitumor activity against human OCI-LY3 cells xenografted in ip dosed NOD Cg-rkdc SCID Il2rgtm1Wjl/SzJ mouse assessed as effect on tumor growth administered twice daily for 16 to 24 days measured 4 hrs post-last dose", "assay_type": "functional, organism-based"}, "[5]": {"target": "Caspase-10 (Homo sapiens) (UniProt Q92851)", "sequence (Q92851 220-415 limits assumed)": "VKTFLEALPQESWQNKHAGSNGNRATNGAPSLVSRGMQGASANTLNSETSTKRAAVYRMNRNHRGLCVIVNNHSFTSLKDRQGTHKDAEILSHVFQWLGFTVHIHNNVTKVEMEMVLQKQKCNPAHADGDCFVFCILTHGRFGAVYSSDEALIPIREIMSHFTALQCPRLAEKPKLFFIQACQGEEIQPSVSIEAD", "sequence (Q92851 416-521 limits assumed)": "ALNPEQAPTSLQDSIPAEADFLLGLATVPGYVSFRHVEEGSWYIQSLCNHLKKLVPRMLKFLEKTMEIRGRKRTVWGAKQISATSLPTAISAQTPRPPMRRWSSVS", "test": "Inhibition of caspase-10 (unknown origin) at 10 uM"}, "[6]": {"target": "Tryptase beta-2 (Homo sapiens) (UniProt P20231)", "sequence (P20231 whole entry)": "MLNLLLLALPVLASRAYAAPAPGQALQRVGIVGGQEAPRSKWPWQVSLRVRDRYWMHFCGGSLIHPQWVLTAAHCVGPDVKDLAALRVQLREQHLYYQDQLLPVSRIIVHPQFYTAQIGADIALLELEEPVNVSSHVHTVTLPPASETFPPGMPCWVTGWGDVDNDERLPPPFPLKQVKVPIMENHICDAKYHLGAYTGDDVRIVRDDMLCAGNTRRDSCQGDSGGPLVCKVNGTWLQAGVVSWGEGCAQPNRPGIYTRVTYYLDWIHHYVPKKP", "test": "Inhibition of tryptase b2 (unknown origin) at 10 uM relative to control"}, "Caspase-2 (Homo sapiens)": {"target": "Caspase-2 (Homo sapiens) (UniProt P42575)", "sequence (P42575 170-325 limits assumed)": "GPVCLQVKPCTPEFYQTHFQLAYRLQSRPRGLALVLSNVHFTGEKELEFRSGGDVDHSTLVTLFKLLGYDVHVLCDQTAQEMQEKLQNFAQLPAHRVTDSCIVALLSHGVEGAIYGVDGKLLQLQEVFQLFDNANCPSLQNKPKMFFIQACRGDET", "sequence (P42575 334-452 limits assumed)": "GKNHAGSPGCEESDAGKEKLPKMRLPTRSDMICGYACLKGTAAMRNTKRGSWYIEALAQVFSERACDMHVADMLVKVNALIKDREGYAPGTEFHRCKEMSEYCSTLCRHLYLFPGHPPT", "test": "Inhibition of caspase-2 (unknown origin) at 10 uM"}, "[7]": {"target": "Cathepsin S (Homo sapiens) (UniProt P25774)", "test": "Inhibition of cathepsin S (unknown origin) at 1 uM relative to control"}, "[8]": {"target": "Cathepsin B (Homo sapiens) (UniProt P07858)", "test": "Inhibition of cathepsin B (unknown origin) at 10 uM relative to control"}, "Legumain (Homo sapiens)": {"target": "Legumain (Homo sapiens) (UniProt Q99538)", "sequence (Q99538 whole entry)": "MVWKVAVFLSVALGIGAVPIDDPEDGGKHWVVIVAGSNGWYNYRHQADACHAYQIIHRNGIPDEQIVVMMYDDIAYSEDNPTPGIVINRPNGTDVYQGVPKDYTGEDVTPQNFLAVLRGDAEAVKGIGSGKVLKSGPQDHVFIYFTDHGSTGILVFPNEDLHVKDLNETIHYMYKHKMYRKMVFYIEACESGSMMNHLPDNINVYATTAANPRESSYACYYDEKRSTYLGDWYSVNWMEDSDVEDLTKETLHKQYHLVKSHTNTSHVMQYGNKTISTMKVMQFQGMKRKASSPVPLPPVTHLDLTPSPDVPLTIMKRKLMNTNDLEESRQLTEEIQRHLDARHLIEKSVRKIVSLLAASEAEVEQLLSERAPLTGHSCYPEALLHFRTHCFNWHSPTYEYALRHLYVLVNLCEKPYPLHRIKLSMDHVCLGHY", "test": "Inhibition of legumain (unknown origin) at 10 uM"}, "Trypsin (Homo sapiens) [9]": {"target": "T2, Trypsin (Homo sapiens) (UniProt P07477+P07478+P35030)", "test": "Inhibition of trypsin (unknown origin) at 1 uM relative to control", "assay_type": "protein assay"}, "[10]": {"target": "Cathepsin S (Homo sapiens) (UniProt P25774)", "test": "Inhibition of cathepsin S (unknown origin) at 100 nM relative to control"}, "Trypsin (Homo sapiens) [11]": {"target": "T2, Trypsin (Homo sapiens)", "test": "Inhibition of trypsin (unknown origin) at 100 nM relative to control", "assay_type": "protein assay"}, "[12]": {"target": "Procathepsin L (Homo sapiens) (UniProt P07711)", "sequence (P07711 114-333 limits assumed)": "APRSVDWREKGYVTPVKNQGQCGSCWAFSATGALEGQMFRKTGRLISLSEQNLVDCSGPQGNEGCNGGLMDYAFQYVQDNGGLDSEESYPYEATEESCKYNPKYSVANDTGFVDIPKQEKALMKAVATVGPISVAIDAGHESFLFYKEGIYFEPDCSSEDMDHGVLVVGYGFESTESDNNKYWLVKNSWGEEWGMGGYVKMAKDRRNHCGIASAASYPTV", "test": "Inhibition of cathepsin L (unknown origin) at 10 uM relative to control"}, "[13]": {"target": "T3, Calpain1/2 (Homo sapiens) (UniProt P17655+P07384)", "T3 sequence (P07384 whole entry, looked up)": "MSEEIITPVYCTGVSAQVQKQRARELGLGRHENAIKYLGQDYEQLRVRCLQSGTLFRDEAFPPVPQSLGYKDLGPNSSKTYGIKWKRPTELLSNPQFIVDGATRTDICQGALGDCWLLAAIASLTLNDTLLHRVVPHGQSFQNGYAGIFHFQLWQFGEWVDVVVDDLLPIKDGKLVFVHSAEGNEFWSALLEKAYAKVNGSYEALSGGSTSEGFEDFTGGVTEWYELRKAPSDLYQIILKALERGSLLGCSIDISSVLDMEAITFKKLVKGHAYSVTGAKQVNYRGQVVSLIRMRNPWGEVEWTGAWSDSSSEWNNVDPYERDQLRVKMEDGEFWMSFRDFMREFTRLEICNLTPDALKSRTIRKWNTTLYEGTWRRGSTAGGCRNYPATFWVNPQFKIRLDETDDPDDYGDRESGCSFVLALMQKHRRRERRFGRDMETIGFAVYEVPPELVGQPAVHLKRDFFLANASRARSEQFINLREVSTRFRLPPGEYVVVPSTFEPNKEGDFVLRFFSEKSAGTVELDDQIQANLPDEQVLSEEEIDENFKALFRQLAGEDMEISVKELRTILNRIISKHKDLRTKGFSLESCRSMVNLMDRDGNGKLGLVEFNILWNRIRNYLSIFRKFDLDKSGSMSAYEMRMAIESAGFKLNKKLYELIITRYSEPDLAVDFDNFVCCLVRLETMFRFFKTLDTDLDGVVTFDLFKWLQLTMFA", "T3 sequence (P17655 whole entry, looked up)": "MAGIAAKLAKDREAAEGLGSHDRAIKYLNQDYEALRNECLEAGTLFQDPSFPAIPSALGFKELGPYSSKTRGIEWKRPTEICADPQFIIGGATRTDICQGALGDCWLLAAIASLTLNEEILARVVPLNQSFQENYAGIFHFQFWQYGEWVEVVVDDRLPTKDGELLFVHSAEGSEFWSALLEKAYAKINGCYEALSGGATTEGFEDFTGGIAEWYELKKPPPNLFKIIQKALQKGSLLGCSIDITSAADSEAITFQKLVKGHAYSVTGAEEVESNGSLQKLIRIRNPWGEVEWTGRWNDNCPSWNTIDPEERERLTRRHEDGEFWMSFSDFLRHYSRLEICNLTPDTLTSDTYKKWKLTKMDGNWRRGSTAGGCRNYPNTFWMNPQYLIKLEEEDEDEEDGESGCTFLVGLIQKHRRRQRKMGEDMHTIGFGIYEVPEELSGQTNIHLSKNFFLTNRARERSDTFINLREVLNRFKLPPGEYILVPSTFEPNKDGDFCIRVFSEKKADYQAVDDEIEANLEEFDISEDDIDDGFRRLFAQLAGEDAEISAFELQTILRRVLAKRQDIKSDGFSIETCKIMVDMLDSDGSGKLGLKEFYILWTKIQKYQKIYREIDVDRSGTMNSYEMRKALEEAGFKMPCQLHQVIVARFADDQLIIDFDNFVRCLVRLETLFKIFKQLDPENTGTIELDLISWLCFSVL", "test": "Inhibition of calpain (unknown origin) at 1 uM relative to control", "assay_type": "protein assay"}, "[14]": {"test": "Drug uptake in iv dosed mouse plasma by LC-MS/MS analysis", "assay_type": "ADME, organism-based", "conditions": "in vivo"}, "[15]": {"target": "Prothrombin (Homo sapiens) (UniProt P00734)", "test": "Inhibition of thrombin (unknown origin) at 10 uM relative to control"}, "[16]": {"test": "Drug uptake in ip dosed mouse plasma by LC-MS/MS analysis", "assay_type": "ADME, organism-based", "conditions": "in vivo"}, "Caspase-8 (Homo sapiens)": {"target": "Caspase-8 (Homo sapiens) (UniProt Q14790)", "sequence (Q14790 217-374 limits assumed)": "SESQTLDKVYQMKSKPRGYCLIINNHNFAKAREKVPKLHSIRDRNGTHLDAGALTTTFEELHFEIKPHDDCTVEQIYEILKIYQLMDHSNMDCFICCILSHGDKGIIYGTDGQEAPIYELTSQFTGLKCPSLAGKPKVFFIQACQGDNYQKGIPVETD", "sequence (Q14790 385-479 limits assumed)": "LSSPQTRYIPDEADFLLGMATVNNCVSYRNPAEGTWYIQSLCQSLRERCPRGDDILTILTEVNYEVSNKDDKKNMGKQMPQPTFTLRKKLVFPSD", "test": "Inhibition of caspase-8 (unknown origin) at 10 uM"}, "Caspase-3 (Homo sapiens)": {"target": "Caspase-3 (Homo sapiens) (UniProt P42574)", "sequence (P42574 29-175 limits assumed)": "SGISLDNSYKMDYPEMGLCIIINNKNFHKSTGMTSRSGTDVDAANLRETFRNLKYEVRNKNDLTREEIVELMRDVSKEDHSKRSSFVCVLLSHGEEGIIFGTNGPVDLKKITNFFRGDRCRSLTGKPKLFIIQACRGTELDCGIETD", "sequence (P42574 176-277 limits assumed)": "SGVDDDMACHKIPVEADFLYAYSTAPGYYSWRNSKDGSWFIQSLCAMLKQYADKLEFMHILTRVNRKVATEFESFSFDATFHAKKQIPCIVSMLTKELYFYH", "test": "Inhibition of caspase-3 (unknown origin) at 10 uM"}, "[17]": {"target": "T3, Calpain1/2 (Homo sapiens)", "test": "Inhibition of calpain (unknown origin) at 10 uM relative to control", "assay_type": "protein assay"}}, "note": "The source made the active and inactive calls. The calls are words filed in the database; no cut-off is given here."}
{"smiles": "CC(C)[C@H](NC(=O)c1ccc(Br)cc1)C(=O)N1CCC[C@H]1C(=O)N[C@@H](CCCNC(=N)N)C(=O)CF", "values": [{"measurement": "inhibition", "setting": "[1]", "result": "Active"}, {"measurement": "inhibition", "setting": "[2]", "result": 99.1, "unit": "%"}, {"measurement": "t1/2", "setting": "[3]", "result": 4.3, "unit": "h"}, {"measurement": "inhibition", "setting": "[4]", "result": 97.1, "unit": "%"}, {"measurement": "Activity", "setting": "OCI-Ly3", "result": "Active"}, {"measurement": "inhibition", "setting": "[5]", "result": "Active"}, {"measurement": "inhibition", "setting": "[6]", "result": 79, "unit": "%"}, {"measurement": "inhibition", "setting": "Caspase-2 (Homo sapiens)", "result": "Active"}, {"measurement": "inhibition", "setting": "[7]", "result": 83.9, "unit": "%"}, {"measurement": "inhibition", "setting": "[8]", "result": 99.6, "unit": "%"}, {"measurement": "inhibition", "setting": "Legumain (Homo sapiens)", "result": "Active"}, {"measurement": "inhibition", "setting": "Trypsin (Homo sapiens) [9]", "result": 98, "unit": "%"}, {"measurement": "inhibition", "setting": "[10]", "result": 78.2, "unit": "%"}, {"measurement": "inhibition", "setting": "Trypsin (Homo sapiens) [11]", "result": 92.9, "unit": "%"}, {"measurement": "inhibition", "setting": "[12]", "result": 44.9, "unit": "%"}, {"measurement": "inhibition", "setting": "[13]", "result": 25.6, "unit": "%"}, {"measurement": "Drug uptake", "setting": "[14]", "result": "Active"}, {"measurement": "inhibition", "setting": "[15]", "result": 83, "unit": "%"}, {"measurement": "Drug uptake", "setting": "[16]", "result": "Active"}, {"measurement": "inhibition", "setting": "Caspase-8 (Homo sapiens)", "result": "Active"}, {"measurement": "inhibition", "setting": "Caspase-3 (Homo sapiens)", "result": "Active"}, {"measurement": "inhibition", "setting": "[17]", "result": 105, "unit": "%"}]}
